Laboratory results from publication PMC7845544 (Frontiers in Pharmacology, 2021).
“And” between values parts separate entries of the source, which are not always exact repeats. Identical values can stand only once. “Also recorded” adds a separate entry of the source. Like-named read-outs stand apart in the source and are kept apart here.

Experiments:
immature SD rats = experiment: Superovulation assay in immature rats; format: in vivo, rat; settings: for minimal effective dose, cumulus oocyte complexes (COC): with low dose rec-hFSH (0.29 IU)
Description: Immature SD rats and B6C3F1 mice (both 18–21 day old females) were purchased from Charles-River laboratories (Wilmington, MA, United States and Shanghai, China). All animals were treated in accordance to Chempartner (Shanghai, China) or Embryotech (Haverhill, MA, United States) IACUC approved animal protocols. The animals were provided water and food ad libitum and housed under 12 h dark and 12 h light schedules.
Immature rats and mice were used to investigate the ability of the small molecules to induce follicular development and support ovulation as described elsewhere ([Steelman and Pohley, 1953]) with modifications ([Sriraman et al., 2014]). […] The isolated COC’s were treated with hyaluronidase and the total number of ovulated oocytes was determined microscopically.
Plasma concentrations of FSHR-AA were measured during superovulation assays, except for experiments where plasma was collected for estradiol measurements.

rat granulosa cells = experiment: Rat granulosa cell assay measuring secreted estradiol; format: cell-based; settings: for % Response, estradiol, +EC20 FSH / EC50 / % Response, estradiol, No FSH: 24 h, mean ± SEM; for fold improvement of EC50 for estradiol production by low concentration of rec-hFSH: rec-hFSH 0.2 pM
Description: All animals were maintained and handled under IACUC approved procedures at the respective institutions providing contracted service for TocopheRx, following procedures previously approved by local (MA, United States) IACUC reviews ([Sriraman et al., 2014]; [Yu et al., 2014]). Ovarian follicular granulosa cells were isolated from rats implanted with DES pellets (1 mg/day; 7-days release) at ChemPartner (Shanghai, China). The pellets were implanted subcutaneously on 22 day old rats with trochar, employing aseptic techniques after isoflurane anesthesia. Animals were euthanized on post-op day 3, ovaries were excised, cleaned, and granulosa cells were isolated by repeated disruption of the follicle as described previously. Granulosa cells isolated from four to five rats were used to culture one 96-well plate and an equal number of cells was plated in each well. The cells were cultured overnight at 37°C in media containing 5% FBS.
After overnight culture, the media was replaced with serum free media containing 0.1% BSA and 100 nM androstenedione. […] After 24 h of treatment, supernatant was collected and estradiol concentration was determined by ELISA (DRG, Mountainside, NJ, United States). The optical densities of the estradiol ELISA were measured by Spectramax (Sunnyvale, CA, United States). The values were analyzed in Microsoft Excel and Graphpad Prism (San Diego, CA, United States).

Rat pharmacokinetics = format: in vivo; settings: for Rat PK %F: oral bioavailability
Description: […] Blood samples were collected at serial time points from 5 min to 24 h. The circulating concentrations of the compound in plasma samples were analyzed by HPLC. PK parameters were determined with Phoenix WinNonlin software (Pharsight Corporation, Sunnyvale, CA, United States) using a non-compartmental model.

Mouse pharmacokinetics = format: in vivo; settings: 5 mg/kg; for Mouse PK F%: oral bioavailability
CYP3A4 = CYP3A4 (Homo sapiens, UniProt P08684); experiment: Cytochrome P450 inhibition; format: in vitro ADME; settings: b51 words it as 52% of vehicle
Sequence of CYP3A4 (P08684 whole entry): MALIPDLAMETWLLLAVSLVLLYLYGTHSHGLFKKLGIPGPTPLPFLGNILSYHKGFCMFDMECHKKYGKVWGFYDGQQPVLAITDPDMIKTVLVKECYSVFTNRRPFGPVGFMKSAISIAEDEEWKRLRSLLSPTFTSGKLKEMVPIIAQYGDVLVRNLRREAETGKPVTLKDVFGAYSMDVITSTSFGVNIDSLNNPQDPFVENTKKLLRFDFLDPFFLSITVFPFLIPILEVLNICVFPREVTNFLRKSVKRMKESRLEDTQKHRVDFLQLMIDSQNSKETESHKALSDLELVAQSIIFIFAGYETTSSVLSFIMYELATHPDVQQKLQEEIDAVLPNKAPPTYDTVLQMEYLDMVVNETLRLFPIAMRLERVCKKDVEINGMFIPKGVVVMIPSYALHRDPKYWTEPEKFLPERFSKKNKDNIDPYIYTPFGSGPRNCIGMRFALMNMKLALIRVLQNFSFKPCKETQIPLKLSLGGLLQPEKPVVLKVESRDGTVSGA

[1] = microsomes
[2] = microsomes; remark: listed apart in the source
Adenosine A3 receptor = settings: dose response
beagle dogs = experiment: Serum thyroid hormones in beagle dogs treated for 14 days; format: in vivo
Description: Male and female beagle dogs were received from Beijing Marshall Biotechnology Co., Ltd (Beijing, China) and group housed at Covance (Shanghai, China), except for 5 h each day in stainless steel cages for study-related procedures. […] Blood samples (approximately 1.0 ml) were collected for thyroid hormone analysis on Days 0, prior to dosing, 24 h post dose (prior to second dose on Day 2) and once prior to dosing on Day 14. Blood was collected into serum separator tubes (without anticoagulant), allowed to clot at room temperature, and centrifuged for approximately 10 min in a refrigerated centrifuge at approximately at 3,500 g within 2 h of collection. Serum was harvested and placed in a freezer for subsequent thyroid hormone measurement.

hERG = hERG (Homo sapiens, UniProt Q12809); experiment: hERG channel inhibition (Cyprotex); format: biochemical
Sequence of hERG (Q12809 whole entry): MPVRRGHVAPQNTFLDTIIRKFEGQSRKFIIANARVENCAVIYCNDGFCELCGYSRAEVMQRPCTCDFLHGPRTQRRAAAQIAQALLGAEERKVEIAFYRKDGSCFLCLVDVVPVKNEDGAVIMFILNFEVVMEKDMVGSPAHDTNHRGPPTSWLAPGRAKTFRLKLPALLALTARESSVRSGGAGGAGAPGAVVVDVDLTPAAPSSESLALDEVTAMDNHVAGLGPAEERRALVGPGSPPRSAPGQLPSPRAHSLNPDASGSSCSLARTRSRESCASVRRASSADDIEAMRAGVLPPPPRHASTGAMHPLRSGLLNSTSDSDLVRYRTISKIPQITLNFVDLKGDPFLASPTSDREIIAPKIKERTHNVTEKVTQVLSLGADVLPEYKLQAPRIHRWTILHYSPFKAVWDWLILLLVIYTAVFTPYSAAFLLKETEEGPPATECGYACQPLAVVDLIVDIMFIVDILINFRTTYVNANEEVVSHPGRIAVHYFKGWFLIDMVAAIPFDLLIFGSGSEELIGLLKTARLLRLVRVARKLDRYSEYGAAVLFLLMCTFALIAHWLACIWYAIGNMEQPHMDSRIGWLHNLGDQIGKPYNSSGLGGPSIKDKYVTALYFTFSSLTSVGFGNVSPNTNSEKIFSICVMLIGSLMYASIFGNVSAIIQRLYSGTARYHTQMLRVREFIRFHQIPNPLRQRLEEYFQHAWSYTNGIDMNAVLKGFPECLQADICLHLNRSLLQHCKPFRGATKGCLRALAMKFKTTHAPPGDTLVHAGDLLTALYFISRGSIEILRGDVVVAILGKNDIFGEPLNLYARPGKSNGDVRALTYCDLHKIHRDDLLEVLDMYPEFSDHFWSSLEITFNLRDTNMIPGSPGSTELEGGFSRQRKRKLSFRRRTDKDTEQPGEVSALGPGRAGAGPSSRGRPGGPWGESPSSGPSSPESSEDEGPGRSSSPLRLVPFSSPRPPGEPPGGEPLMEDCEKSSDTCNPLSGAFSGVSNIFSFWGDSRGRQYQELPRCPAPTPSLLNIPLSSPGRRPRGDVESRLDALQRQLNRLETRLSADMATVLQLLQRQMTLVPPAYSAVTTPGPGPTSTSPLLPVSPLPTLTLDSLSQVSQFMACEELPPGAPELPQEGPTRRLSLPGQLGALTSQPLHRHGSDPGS

[3] = +EC20 FSH, read-out: EC50 (M), estradiol, +EC20 FSH
[4] = No FSH, read-out: EC50 (M), estradiol, No FSH
[5] = female dog, 30 mg/Kg, 0h predosing
[6] = female dog, 100 mg/Kg, 0h predosing
[7] = female dog, 1000 mg/Kg, 0h predosing
[8] = male dog, 30 mg/Kg, 0h predosing
[9] = male dog, 100 mg/Kg, 0h predosing
[10] = male dog, 1000 mg/Kg, 0h predosing

COc1cc(C(N)=O)cc(-c2cc3c(cc2OC)OCc2c(C(=O)N(C)C(C)(C)C)nn(-c4cc(Cl)cc(Cl)c4)c2-3)n1 [TOP5668]
fold more potent than TOP5300, superovulation dose response (immature SD rats; immature rat): approximately 2 fold
minimal effective dose, cumulus oocyte complexes (COC) (immature SD rats; immature rat, oral): 2.5 mg/kg
% Response, estradiol, +EC20 FSH (rat granulosa cells; +EC20 FSH): 117 ± 8%
EC50 (rat granulosa cells; [3]): 7.33e-08 M
% Response, estradiol, No FSH (rat granulosa cells; No FSH): 93%
EC50 (rat granulosa cells; [4]): 1.82e-07 M
fold more potent than TOP5300, rat granulosa cells (rat granulosa cells; estradiol production): 5 fold
fold improvement of EC50 for estradiol production by low concentration of rec-hFSH (rat granulosa cells): 2 fold
fold lower exposure than TOP5300 (Rat pharmacokinetics; mature rat pharmacokinetic models): 3-4 fold
Rat PK AUC (Rat pharmacokinetics; 5 mg/kg): 1,530 ng*h/ml
Rat PK Cmax (Rat pharmacokinetics; 5 mg/kg): 132 ng/mL
Rat PK T1/2 (Rat pharmacokinetics; 5 mg/kg): 2.4 h
Rat PK %F (Rat pharmacokinetics; 5 mg/kg): 5% and 5.4%
Mouse PK AUC (Mouse pharmacokinetics): 2,494 ng*h/ml
Mouse PK Cmax (Mouse pharmacokinetics): 312 ng/mL
Mouse PK T1/2 (Mouse pharmacokinetics): 3.57 h
Mouse PK F% (Mouse pharmacokinetics): 26%
CYP inh @ 10 µM, CYP3A4 (midazolam) (CYP3A4): CYP3A4 (midazolam) = 50.6%
Clint, rat [1]: 7 µl/min/mg protein
Clint, human [2]: 20 µl/min/mg protein

COc1cc2c(cc1-c1cnn(CCO)c1)-c1c(c(C(=O)N(C)C(C)(C)C)nn1-c1cc(Cl)cc(Cl)c1)CO2 [TOP5300]
number of COCs vs 1.16 IU rec-hFSH (immature SD rats; 50 mg/kg, oral, with 0.29 IU rec-hFSH): not significantly different from 1.16 IU rec-hFSHH
serum estradiol-17β production (immature SD rats; 5, 10 and 25 mg/kg, immature rat): followed the follicular stimulation response
follicular maturation with or without supplemental rec-hFSH (0.29 IU) (immature SD rats; immature rat, oral): full agonist
single daily dose (QD) vs twice daily (BID) administration, follicular maturation (immature SD rats; immature rat, oral gavage, with 0.29 IU FSH): stimulates similar follicular growth; also recorded: equally effective as twice daily administrations
minimal effective dose, cumulus oocyte complexes (COC) (immature SD rats; immature rat, oral): 5 mg/kg
selectivity / safety margin compared to FSHR, A3(h) (Adenosine A3 receptor): over 400 fold
% Response, estradiol, +EC20 FSH (rat granulosa cells; +EC20 FSH): 125 ± 12%
EC50 (rat granulosa cells; [3]): 1.75e-07 M
% Response, estradiol, No FSH (rat granulosa cells; No FSH): 65 ± 6%
EC50 (rat granulosa cells; [4]): 8.68e-07 M
fold improvement of EC50 for estradiol production by low concentration of rec-hFSH (rat granulosa cells): 2 fold
TSH, free T3 or free T4 concentrations over the course of treatment (beagle dogs; dog, 14 days): No significant difference
Free T3, fold change over vehicle group (beagle dogs; [5]): 0.9 fold
Free T4, fold change over vehicle group (beagle dogs; [5]): 1.1 fold
TSH, fold change over vehicle group (beagle dogs; [5]): 1.2 fold
Free T3, fold change over vehicle group (beagle dogs; female dog, 30 mg/Kg, 24h): 0.8 fold
Free T4, fold change over vehicle group (beagle dogs; female dog, 30 mg/Kg, 24h): 1.1 fold
TSH, fold change over vehicle group (beagle dogs; female dog, 30 mg/Kg, 24h): 0.9 fold
Free T3, fold change over vehicle group (beagle dogs; female dog, 30 mg/Kg, Day 14): 1.0 fold
Free T4, fold change over vehicle group (beagle dogs; female dog, 30 mg/Kg, Day 14): 0.8 fold
TSH, fold change over vehicle group (beagle dogs; female dog, 30 mg/Kg, Day 14): 1.1 fold
Free T3, fold change over vehicle group (beagle dogs; [6]): 1.0 fold
Free T4, fold change over vehicle group (beagle dogs; [6]): 1.2 fold
TSH, fold change over vehicle group (beagle dogs; [6]): 1.3 fold
Free T3, fold change over vehicle group (beagle dogs; female dog, 100 mg/Kg, 24h): 0.9 fold
Free T4, fold change over vehicle group (beagle dogs; female dog, 100 mg/Kg, 24h): 1.1 fold
TSH, fold change over vehicle group (beagle dogs; female dog, 100 mg/Kg, 24h): 1.0 fold
Free T3, fold change over vehicle group (beagle dogs; female dog, 100 mg/Kg, Day 14): 1.1 fold
Free T4, fold change over vehicle group (beagle dogs; female dog, 100 mg/Kg, Day 14): 1.1 fold
TSH, fold change over vehicle group (beagle dogs; female dog, 100 mg/Kg, Day 14): 1.1 fold
Free T3, fold change over vehicle group (beagle dogs; [7]): 1.1 fold
Free T4, fold change over vehicle group (beagle dogs; [7]): 1.0 fold
TSH, fold change over vehicle group (beagle dogs; [7]): 1.2 fold
Free T3, fold change over vehicle group (beagle dogs; female dog, 1000 mg/Kg, 24h): 0.9 fold
Free T4, fold change over vehicle group (beagle dogs; female dog, 1000 mg/Kg, 24h): 0.9 fold
TSH, fold change over vehicle group (beagle dogs; female dog, 1000 mg/Kg, 24h): 0.8 fold
Free T3, fold change over vehicle group (beagle dogs; female dog, 1000 mg/Kg, Day 14): 1.2 fold
Free T4, fold change over vehicle group (beagle dogs; female dog, 1000 mg/Kg, Day 14): 0.9 fold
TSH, fold change over vehicle group (beagle dogs; female dog, 1000 mg/Kg, Day 14): 0.8 fold
Free T3, fold change over vehicle group (beagle dogs; [8]): 1.3 fold
Free T4, fold change over vehicle group (beagle dogs; [8]): 1.0 fold
TSH, fold change over vehicle group (beagle dogs; [8]): 0.8 fold
Free T3, fold change over vehicle group (beagle dogs; male dog, 30 mg/Kg, 24h): 1.3 fold
Free T4, fold change over vehicle group (beagle dogs; male dog, 30 mg/Kg, 24h): 1.0 fold
TSH, fold change over vehicle group (beagle dogs; male dog, 30 mg/Kg, 24h): 0.9 fold
Free T3, fold change over vehicle group (beagle dogs; male dog, 30 mg/Kg, Day 14): 1.3 fold
Free T4, fold change over vehicle group (beagle dogs; male dog, 30 mg/Kg, Day 14): 1.0 fold
TSH, fold change over vehicle group (beagle dogs; male dog, 30 mg/Kg, Day 14): 1.0 fold
Free T3, fold change over vehicle group (beagle dogs; [9]): 1.1 fold
Free T4, fold change over vehicle group (beagle dogs; [9]): 0.9 fold
TSH, fold change over vehicle group (beagle dogs; [9]): 0.8 fold
Free T3, fold change over vehicle group (beagle dogs; male dog, 100 mg/Kg, 24h): 1.1 fold
Free T4, fold change over vehicle group (beagle dogs; male dog, 100 mg/Kg, 24h): 0.8 fold
TSH, fold change over vehicle group (beagle dogs; male dog, 100 mg/Kg, 24h): 0.9 fold
Free T3, fold change over vehicle group (beagle dogs; male dog, 100 mg/Kg, Day 14): 1.1 fold
Free T4, fold change over vehicle group (beagle dogs; male dog, 100 mg/Kg, Day 14): 0.9 fold
TSH, fold change over vehicle group (beagle dogs; male dog, 100 mg/Kg, Day 14): 1.0 fold
Free T3, fold change over vehicle group (beagle dogs; [10]): 1.0 fold
Free T4, fold change over vehicle group (beagle dogs; [10]): 0.9 fold
TSH, fold change over vehicle group (beagle dogs; [10]): 0.7 fold
Free T3, fold change over vehicle group (beagle dogs; male dog, 1000 mg/Kg, 24h): 0.9 fold
Free T4, fold change over vehicle group (beagle dogs; male dog, 1000 mg/Kg, 24h): 0.9 fold
TSH, fold change over vehicle group (beagle dogs; male dog, 1000 mg/Kg, 24h): 0.9 fold
Free T3, fold change over vehicle group (beagle dogs; male dog, 1000 mg/Kg, Day 14): 1.0 fold
Free T4, fold change over vehicle group (beagle dogs; male dog, 1000 mg/Kg, Day 14): 1.0 fold
TSH, fold change over vehicle group (beagle dogs; male dog, 1000 mg/Kg, Day 14): 0.8 fold
Rat PK AUC (Rat pharmacokinetics; 10 mg/kg): 2,655 ng*h/ml
Rat PK Cmax (Rat pharmacokinetics; 10 mg/kg): 237 ng/mL
Rat PK T1/2 (Rat pharmacokinetics; 10 mg/kg): 5.1 h
Rat PK %F (Rat pharmacokinetics; 10 mg/kg): 20%
Mouse PK AUC (Mouse pharmacokinetics): 5,533 ng*h/ml
Mouse PK Cmax (Mouse pharmacokinetics): 1,133 ng/ml
Mouse PK T1/2 (Mouse pharmacokinetics): 2.5 h
Mouse PK F% (Mouse pharmacokinetics): 22%
hERG assay result (hERG): inactive
hERG channel inhibition @ 10 uM (hERG; 10 uM): 16 % inhibition
Clint, rat [1]: 11 µl/min/mg protein
Clint, human [2]: 37 µl/min/mg protein
